Data taken from patent publication US5679678A, “Thienithiazine derivatives” (Chemisch Pharmazeutische Forschungsgesellschaft m.b.H., priority 1991, dated 1997).

Assays:
cyclooxygenase = test: Formation of prostaglandin D2 by neutrophils (measure of cyclooxygenase activity), A23187 stimulated, RIA; assay type: cell-based, Sprague-Dawley rats; conditions: rat peritoneal neutrophils (lambda-carageenan), 5 min preincubation at 37° C., A23187 2 μmol/l, read-out: IC50 PGD2
Procedure: (§1) The formation of prostaglandin D2 by neutrophils was used as a measure of the cyclooxygenase activity, and the formation of leucotrien B4 as a measure of the 5-lipoxygenase activity.
(§2) Male Sprague-Dawley rats (250-300 g) received 1 mg of lambda-carageenan (dissolved in 0.5 ml of distilled water) injected intraperitoneally.
(§3) After 16 hours, the rats were sacrificed by exposure to diethyl ether. 15 ml of Hanks balanced salt solution (HBSS) were injected i.p., the neutrophils were harvested by aspiration (10 ml) and were centrifuged (5 min, 100 g, 4° C.), the supernatant solution was decanted, and the cells were resuspended in HBSS at 4° C. to a concentration of 5×10^6 cells/ml.
(§4) 400 μl of cell suspension (2×10^6 cells), […] of compound dissolved in DMSO and 49.5 μl of HBSS were incubated at 37° C. for 5 min. Then 50 μl of A23187 (2 μmol/1 final concentration) were added and subsequently the mixture was again incubated at 37° C. for 5 min.
(§5) The reaction was stopped by centrifugation at 10,000 g for 3 s, and the supernatant liquid was transferred into precooled plastic tubes and left in an ice bath for a maximum of 1 h before starting the radioimmunoassay measurement.
(§6) PGD2 and LTB4 were measured after dilution with HBSS using commercial RIA kits.
(§7) The comparison substance was 6-chloro-2-methyl-N-(2-pyridyl)-2H-thieno[2,3-e]-1,2-thiazine-3-carboxamide 1,1-dioxide ("LORNOXICAM", Compound A).

5-lipoxygenase = target: T1, 5-lipoxygenase (Rattus norvegicus, UniProt P12527); test: Formation of leucotrien B4 by neutrophils (measure of 5-lipoxygenase activity), A23187 stimulated, RIA; assay type: cell-based, Sprague-Dawley rats; conditions: rat peritoneal neutrophils (lambda-carageenan), 5 min preincubation at 37° C., A23187 2 μmol/l, read-out: IC50 LTB4
T1 construct: endogenous in cells; host or cells: peritoneal neutrophils of male Sprague-Dawley rats, elicited by i.p. carrageenan (16 h)
T1 sequence (P12527 1-673): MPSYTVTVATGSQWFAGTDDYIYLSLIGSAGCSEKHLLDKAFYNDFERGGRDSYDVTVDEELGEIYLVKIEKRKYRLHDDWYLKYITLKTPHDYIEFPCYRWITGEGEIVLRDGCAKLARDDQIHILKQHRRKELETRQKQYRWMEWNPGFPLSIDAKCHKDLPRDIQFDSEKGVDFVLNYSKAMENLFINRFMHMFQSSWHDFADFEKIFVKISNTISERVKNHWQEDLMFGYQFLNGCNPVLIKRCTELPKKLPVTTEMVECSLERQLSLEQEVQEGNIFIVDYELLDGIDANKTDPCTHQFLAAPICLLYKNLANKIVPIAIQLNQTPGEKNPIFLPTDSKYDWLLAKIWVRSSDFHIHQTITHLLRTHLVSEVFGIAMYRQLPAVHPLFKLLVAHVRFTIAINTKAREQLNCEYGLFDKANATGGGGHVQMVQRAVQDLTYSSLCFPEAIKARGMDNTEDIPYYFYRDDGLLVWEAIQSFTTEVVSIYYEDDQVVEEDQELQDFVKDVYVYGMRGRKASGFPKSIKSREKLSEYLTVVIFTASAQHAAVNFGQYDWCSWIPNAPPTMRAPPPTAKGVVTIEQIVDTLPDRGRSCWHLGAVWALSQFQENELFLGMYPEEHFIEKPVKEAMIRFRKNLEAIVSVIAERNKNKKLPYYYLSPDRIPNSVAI
Procedure: as §1, §2, §3, §4, §5, §6, §7

| Compound | IC50 (cyclooxygenase) | IC50 (5-lipoxygenase) |
| --- | --- | --- |
| CN1C(C(=O)Nc2nc(-c3ccccc3)cs2)=C(O)c2sc(Cl)cc2S1(=O)=O [Compound 2, 6-Chloro-4-hydroxy-2-methyl-N-(4phenyl-2-thiazolyl)-2H-thieno[2,3-e]-1,2-thiazine-3-carboxamide 1,1-dioxide] | 27 nM | > 10000 nM |
| CN1C(C(=O)Nc2nc(-c3ccc(Oc4ccc(F)cc4)o3)cs2)=C(O)c2sc(Cl)cc2S1(=O)=O [Compound 4, 6-Chloro-N-{4-[5-(4-fluorophenoxy)-2-furanyl]-2-thiazolyl}-4-hydroxy-2-methyl-2H-thieno[2,3-e]-1,2-thiazine-3-carboxamide 1,1-dioxide] | 3400 nM | 470 nM |
| CN1C(C(=O)Nc2cccc(-c3cc4ccccc4o3)n2)=C(O)c2sc(-c3ccccc3)cc2S1(=O)=O [Compound 17, N-[6-(2-Benzo[b]furyl)-2-pyridinyl]-4-hydroxy-2-methyl-6-phenyl-2H-thieno[2,3-e]-1,2-thiazine-3-carboxamide 1,1-dioxide] | 190 nM | 1300 nM |
| CN1C(C(=O)Nc2nc(-c3cc4ccccc4s3)co2)=C(O)c2sc(Cl)cc2S1(=O)=O [Compound 12, N-[4-(2-Benzo[b]thienyl)-2-oxazolyl]-6-chloro-4-hydroxy-2-methyl-2H-thieno[2,3e]-thiazine-3-carboxamide 1,1-dioxide] | 190 nM | 2700 nM |
| CN1C(C(=O)Nc2ccccn2)=C(O)c2sc(-c3ccccc3)cc2S1(=O)=O [Compound 14, 4-Hydroxy-2-methyl-6-phenyl-N-(2-pyridinyl)-2H-thieno-[2,3-e]-1,2-thiazine-3-carboxamide 1,1-dioxide] | 38 nM | > 10000 nM |
| CN1C(C(=O)Nc2ccccn2)=C(O)c2sc(-c3ccco3)cc2S1(=O)=O [Compound 16, 6-(2-Furyl)-4-hydroxy-2-methyl-N-(2-pyridinyl)-2H-thieno[2,3-e]-1,2-thiazine-3-carboxamide 1,1-dioxide] | 9.6 nM | > 10000 nM |
| CN1C(C(=O)Nc2nc(-c3ccc(-c4ccc(F)cc4)o3)cs2)=C(O)c2sc(Cl)cc2S1(=O)=O [Compound 6, 6-Chloro-N-{4-[5-(4-fluorophenyl)-2-furanyl]-2-thiazolyl}-4-hydroxy-2-methyl-2H-thieno[2,3-e]-1,2-thiazine-3-carboxamide 1,1-dioxide] | 3600 nM | 580 nM |
| CN1C(C(=O)Nc2ccccn2)=C(O)c2sc(-c3cccs3)cc2S1(=O)=O [Compound 15, 4-Hydroxy-2-methyl-N-(2-pyridinyl)-6-(2-thienyl)-2H-thieno[2,3-e]-1,2-thiazine-3-carboxamide 1,1-dioxide] | 3.5 nM | > 10000 nM |
| CN1C(C(=O)Nc2nccs2)=C(O)c2sc(Cl)cc2S1(=O)=O [Compound 1, 6-Chloro-4-hydroxy-2-methyl-N-(2-thiazolyl)-2H-thieno[2,3-e]-1,2-thiazine-3-carboxamide 1,1-dioxide] | 17 nM | > 10000 nM |
| CN1C(C(=O)Nc2ccccn2)=C(O)c2sc(Cl)cc2S1(=O)=O [Compound A, reference compound] | 20 nM | > 10000 nM |

Continued, values first:

| IC50 (cyclooxygenase) | IC50 (5-lipoxygenase) | Compound |
| --- | --- | --- |
| 39 nM | 1600 nM | CN1C(C(=O)Nc2nc(-c3cc4ccccc4o3)cs2)=C(O)c2sc(-c3ccco3)cc2S1(=O)=O [Compound 9, N-[4-(2-Benzo[b]furanyl)-2-thiazolyl]-6-(2-furanyl)-4-hydroxy-2-methyl-2H-thieno[2,3-e]-1,2-thiazine-3-carboxamide 1,1-dioxide] |
| 1600 nM | 730 nM | CN1C(C(=O)Nc2nc(-c3ccc(-c4ccc(F)cc4)o3)cs2)=C(O)c2sc(-c3ccco3)cc2S1(=O)=O [Compound 7, N-{4-[5-(4-Fluorophenyl)-2-furanyl]-2-thiazolyl}-6-(2-furanyl)-4-hydroxy-2-methyl-2H-thieno[2,3-e]-1,2-thiazine-3-carboxmide 1,1-dioxide] |
| 200 nM | 2100 nM | CN1C(C(=O)Nc2nc(-c3cc4ccccc4o3)co2)=C(O)c2sc(-c3ccco3)cc2S1(=O)=O [Compound 11] |
| 39 nM | 1400 nM | CN1C(C(=O)Nc2cccc(-c3cc4ccccc4o3)n2)=C(O)c2sc(-c3ccco3)cc2S1(=O)=O [Compound 19, N-[6-(2-Benzo[b]furyl)-2-pyridinyl]-6-(2-furyl)-4-hydroxy-2-methyl-2H-thieno[2,3e]-1,2-thiazine-3-carboxamide 1,1-dioxide] |
| 100 nM | 2200 nM | CN1C(C(=O)Nc2nc(-c3cc4ccccc4o3)cs2)=C(O)c2sc(Cl)cc2S1(=O)=O [Compound 8, N-[4-(2-Benzo[b]furanyl)-2-thiazolyl]-6-chloro-4-hydroxy-2-methyl-2H-thieno[2,3-e]-1,2-thiazine-3-carboxamide 1,1-dioxide] |
| 68 nM | 1300 nM | CN1C(C(=O)Nc2cccc(-c3cc4ccccc4o3)n2)=C(O)c2sc(-c3cccs3)cc2S1(=O)=O [Compound 18, N-[6-(2-Benzo[b]furyl)-2-pyridinyl]-4-hydroxy-2-methyl-6-(2-thienyl)-2H-thieno[2,3-e]-1,2-thiazine-3-carboxamide 1,1-dioxide] |
| 17 nM | 5200 nM | CN1C(C(=O)Nc2nc(-c3ccccc3)cs2)=C(O)c2sc(-c3ccco3)cc2S1(=O)=O [Compound 3, 6-(2-Furyl)-4-hydroxy-2-methyl-N-(4-phenyl-2thiazolyl)-2H-thieno[2,3-e]-1,2-thiazine-3-carboxamide 1,1-dioxide] |
| 270 nM | 660 nM | CN1C(C(=O)Nc2nc(-c3ccc(Oc4ccc(F)cc4)o3)cs2)=C(O)c2sc(-c3ccco3)cc2S1(=O)=O [Compound 5, N-{4[5-(4-Fluorophenoxy)-2-furanyl]-2-thiazolyl}-6-(2-furanyl)-4-hydroxy-2-methyl-2H-thieno[2,3-]-1,2-thiazine-3-carboxamide 1,1-dioxide] |
